Source: patent US8193213B2, “Spermicidal and/or antifungal composition and methods of using the same” (priority 2003, dated 2012)
Marks after values point to notes of the source that are not given here. Each block holds one compound with its values, some of them ahead of it.

How the values were obtained:
adult male Swiss mice = test: Antispermatogenic screen: single gavage dose to male mice, testes weight and Spermatogenic Index at 72 h; format: in vivo; conditions: racemic compounds, day 3 (72 h), vehicle 90% water, 7% Tween20, 3% ethanol
Experimental: The compounds of the invention were tested in mice for their effects on spermatogenesis three days after a single oral dose by the procedure described in Cook et al (1995) below. Compounds active in this test have been shown also to be anti-fertility compounds.
Compounds were screened for antispermatogenic activity by dosing male mice on day 1 with a gavage dose of control vehicle, positive control (compound 1) or compound of the invention. At 72 h after dosing, animals were killed and the testes were excised, trimmed of fat, and weighed. One testis was examined histologically and rated for spermatogenic potential using the Spermatogenic Index (J. M. Whitsett, P. F. Noden, J. Cherry and A. D. Lawton, J. Reprod. Fertil., 72, 277 (1984), which is a semiquantitative estimate of the sperm producing ability of the testes The index is based on histological appearance of the spermatogenic cells in the seminiferous tubules. A scale of 1 to 6 is used with 5 to 6 being the normal status. A second assessment was based on the weight of the testes.
Tables 1 and 2 show pertinent biological results in terms of the change in testes weight (TW) and spermatogenic index (SI) relative to a control containing only the administration vehicle, but no indenopyridine. In Tables 1 and 2, R^3 and R^4 refer to structures Ib, where R^3 is in the para position; R^1 is ethyl; R^2 is methyl; and R^5 is hydrogen.

Candida albicans = test: Antifungal susceptibility testing (NCCLS, MIC/MFC) against C. albicans; format: cell-based; parameters: Lowest [Active]: unit not given here; conditions: for CFU for MFC at 100 / CFU for MFC at 200 / CFU for MFC at 300 / Lowest [Active]: C. albicans (19 hours); for CFU for MFC at 100: concentration 100; for CFU for MFC at 200: concentration 200; for CFU for MFC at 300: concentration 300; for Lowest [Active]: concentrations 300, 200, 100, unit not given, N/A = no active concentration
Experimental: (§1) Antifungal susceptibility testing was performed following the NCCLS guidelines with minor modifications. Briefly, a suspension of Candida albicans cells was prepared from pure cultures grown overnight on yeast-malt extract (YM) agar at 35° C. Several small colonies were removed from a YM agar plate and transferred to 5 ml of 0.85% saline. The cells were suspended by 15 seconds of vortexing and the cell density of the resulting suspension was determined using a spectrophotometer. The cell density was adjusted by addition of 0.85% saline until the transmittance matched that of a 0.5 McFarland standard when measured at a wavelength of 530 nm. An aliquot of this suspension was diluted 1:1000 in RPMI-MOPS to yield a working suspension. A similar suspension of Aspergillus fumigatus spores was obtained by using spores stored at […] in 0.85% saline. These spores were diluted in 0.85% saline to match the McFarland standard transmittance. This suspension was then further diluted 1:50 in RPMI-MOPS to produce the working inoculum suspension.
(§2) Dilution series of the test compounds were made in RPMI-MOPS containing 2% DMSO. An aliquot of each dilution was added in duplicate to the wells of a sterile 96-well, flat bottom microtiter plate. Then, an aliquot of either the C. albicans cell suspension or the A. fumigatus spore suspension were added to each well for a final volume of 200 μl. The plates were then incubated at […]. […] A similar determination was made for the A. fumigatus plates after 48 hours. […] The numbers of colony forming units (CFU) were counted and these values used to calculate the percent survival of cells or spores in inocula relative to the number of CFUs in the working inoculum suspension. The minimum fungicidal concentration (MFC) was the lowest concentration of test compound with a percent survival of less than 2%.

rabbit ejaculated sperm = test: Direct effect on sperm motility, rabbit ejaculated sperm; format: cell-based; conditions: for Motility (%) at 60 Minutes: rabbit ejaculate diluted 1:10, 34° C., control 76.6
Experimental: (§3) Method for Determining Direct Effect of an Agent on Sperm Motility The direct effect of an agent on sperm motility was determined by using the following protocols. Basically, sperm are obtained either from the cauda epididymis, as in the case of the rat, or ejaculated sperm collected using an artificial vagina, as in the rabbit. The initial motility of the sperm is determined manually or by using a Hamilton Thorn IVOS sperm analyzer. The sperm are then kept at a constant temperature of 34° C., diluted to a consistent concentration of 10×10^6/ml, and added to about 3 ml of buffer or media. The motility is determined again at this point and any change is recorded. Different concentrations of the agent to be tested are then added to the sperm preparation. The sperm samples are then held at the same temperature for one hour and the motility is determined. The results are recorded as the percent of motile sperm in the sample. The Sperm were kept at 34° C. throughout the experimental period. Sperm concentration was be approximately 10×10^6/ml (note, the sample may have had to be diluted with buffer or media to reach this concentration). For the Rabbit Studies: (Using Ejaculated Sperm) A 1 mM stock of the indenopyridine in M-199 media with BSA (2.5 mg in 5=0.5 ug/ul; 0.5 ug/ml=1 uM) was prepared and added as follows: 1 uM=1 ul stock+949 ul M-199 media with BSA+50 ul of the diluted sperm 3 uM=3 ul stock+947 ul M-199 media with BSA+50 ul of the diluted sperm 10 uM=10 ul stock+940 ul M-199 media with BSA+50 ul of the diluted sperm 30 uM=30 ul stock+920 ul M-199 media with BSA+50 ul of the diluted sperm 100 uM=100 ul stock+850 ul M-199 media with BSA+50 ul of the diluted sperm 300 uM=300 ul stock+650 ul M-199 media with BSA+50 ul of the diluted sperm 1000 uM=1000 ul stock+50 ul of the diluted sperm Sperm motility was determined after 1 hour. Slides were made to determine morphology changes and eosin was added to determine cell death.

rat cauda sperm = test: Direct effect on sperm motility, rat cauda epididymis sperm; format: cell-based; conditions: control: progressive motility
Experimental: as §3, with “the Rat” for “the Rabbit”, “(Using Sperm from the Cauda Epididymis)” for “(Using Ejaculated Sperm)”, “in HBSS buffer+BSA (5” for “in M-199 media with BSA (2.5”, “in 10=0.5” for “in 5=0.5”, “ul HBSS buffer+BSA+50” for “ul M-199 media with BSA+50”, “Sperm Motility” for “Sperm motility”

Aspergillus fumigatus = test: Antifungal susceptibility testing (NCCLS, MIC/MFC) against A. fumigatus; format: cell-based; parameters: Lowest [Active]: unit not given here; conditions: for CFU for MFC at 100 / CFU for MFC at 200 / CFU for MFC at 300 / Lowest [Active]: A. fumigatus (48 hours); for CFU for MFC at 100: concentration 100; for CFU for MFC at 200: concentration 200; for CFU for MFC at 300: concentration 300; for Lowest [Active]: concentrations 300, 200, 100, unit not given, N/A = no active concentration
Experimental: as §1, §2

Structure (SMILES): CCN1CCC2C(C1)c1cc(I)c(C)cc1C2c1ccc(C(=O)OC)cc1.Cl (stereo not drawn) [Compound 4587-073l]
- CFU for MFC at 100 (Candida albicans): Cidal (Cidal = >98% killed)
- CFU for MFC at 200 (Candida albicans): Cidal (Cidal = >98% killed)
- CFU for MFC at 300 (Candida albicans): Cidal (Cidal = >98% killed)
- Lowest [Active] (Candida albicans): 100
- Motility (%) at 60 Minutes (rabbit ejaculated sperm; +1 μM): 73.0%
- Motility (%) at 60 Minutes (rabbit ejaculated sperm; +3 μM): 68.4%
- Motility (%) at 60 Minutes (rabbit ejaculated sperm; +10 μM): 67.6%
- Motility (%) at 60 Minutes (rabbit ejaculated sperm; +30 μM): 61.9%
- Motility (%) at 60 Minutes (rabbit ejaculated sperm; +100 μM): 15.2 * %
- Motility (%) at 60 Minutes (rabbit ejaculated sperm; +300 μM): 0%
- Motility (%) at 60 Minutes (rabbit ejaculated sperm; +1000 μM): 0 ** %
- Quality of motility (footnote *) (rabbit ejaculated sperm; rabbit sperm, +100 μM, 60 minutes): * Motility not progressive - twitching
- Sperm appearance (rabbit ejaculated sperm; rabbit sperm, +1000 μM, 60 minutes): ** Sperm appeared to be “disintegrating”- sperm heads contain many vacuoles and membranes are not always intact
- Motility (%) at 60 Minutes (in words) (rat cauda sperm; +1 μM): Progressive motility-equal to control
- Motility (%) at 60 Minutes (in words) (rat cauda sperm; +3 μM): Progressive motility diminished
- Motility (%) at 60 Minutes (in words) (rat cauda sperm; +10 μM): No progressive motility - twitching
- Motility (%) at 60 Minutes (in words) (rat cauda sperm; +30 μM): Same as for 10 μM
- Motility (%) at 60 Minutes (in words) (rat cauda sperm; +100 μM): Death
- CFU for MFC at 100 (Aspergillus fumigatus): Cidal (Cidal = >98% killed)
- CFU for MFC at 200 (Aspergillus fumigatus): Cidal (Cidal = >98% killed)
- CFU for MFC at 300 (Aspergillus fumigatus): Cidal (Cidal = >98% killed)
- Lowest [Active] (Aspergillus fumigatus): 100

Structure (SMILES): CCN1CCC2C(C1)c1ccc(C)cc1C2c1ccc(C(=O)OC)cc1.Cl (stereo not drawn) [Compound 4587-056l]
- CFU for MFC at 200 (Candida albicans): Cidal (Cidal = >98% killed)
- CFU for MFC at 300 (Candida albicans): Cidal (Cidal = >98% killed)
- Lowest [Active] (Candida albicans): 200
- CFU for MFC at 100 (Aspergillus fumigatus): Cidal (Cidal = >98% killed)
- CFU for MFC at 200 (Aspergillus fumigatus): Cidal (Cidal = >98% killed)
- CFU for MFC at 300 (Aspergillus fumigatus): Cidal (Cidal = >98% killed)
- Lowest [Active] (Aspergillus fumigatus): 100

Structure (SMILES): CCN1CC[C@@H]2[C@@H](c3ccc(C(=O)O)cc3)c3cc(C)ccc3[C@@H]2C1.Cl (racemic) [Compound 2, (4aRS,5SR,9bRS)-2-Ethyl-2,3,4,4a,5,9b-hexahydro-7-methyl-5-(4-carboxyphenyl)-1H-indeno[1,2-c]pyridine Hydrochloride]
- SI change (%) (Spermatogenic Index, % change from vehicle control) (adult male Swiss mice; 10 mg/kg single gavage dose): −24%*
- TW change (%) (testes weight, % change from vehicle control) (adult male Swiss mice; 10 mg/kg single gavage dose): 2%
- SI change (%) (Spermatogenic Index, % change from vehicle control) (adult male Swiss mice; 30 mg/kg single gavage dose): −52%*
- TW change (%) (testes weight, % change from vehicle control) (adult male Swiss mice; 30 mg/kg single gavage dose): −7%
- melting point: 280 °C (dec.)

Continued, in another order:

- melting point: 169.6 to 170.3 °C
Structure (SMILES): CCN1CC[C@@H]2[C@@H](c3ccc(C(=O)O)cc3)c3cc(C)c(Br)cc3[C@@H]2C1.Cl (racemic) [Compound 19, (4aRS,5SR,9bRS)-2-Ethyl-8-Bromo-7-Methyl-2,3,4,4a,5,9b-Hexahydro-5-(4-carboxylphenyl)-1H-Indeno[1,2-c]pyridine Hydrochloride]
- SI change (%) (Spermatogenic Index, % change from vehicle control) (adult male Swiss mice; 3 mg/kg single gavage dose): −69%*
- TW change (%) (testes weight, % change from vehicle control) (adult male Swiss mice; 3 mg/kg single gavage dose): −8%
- SI change (%) (Spermatogenic Index, % change from vehicle control) (adult male Swiss mice; 10 mg/kg single gavage dose): −71%*
- TW change (%) (testes weight, % change from vehicle control) (adult male Swiss mice; 10 mg/kg single gavage dose): −28%*
- SI change (%) (Spermatogenic Index, % change from vehicle control) (adult male Swiss mice; 30 mg/kg single gavage dose): −72%*
- TW change (%) (testes weight, % change from vehicle control) (adult male Swiss mice; 30 mg/kg single gavage dose): −39%*

- Lowest MIC (Candida albicans; C. albicans, lowest concentration that appears to have no growth): 100 µg/mL
- Lowest MIC (Aspergillus fumigatus; A. fumigatus, lowest concentration that appears to have no growth): 50 µg/mL
Structure (SMILES): CCc1ccc2c(c1)[C@@H](c1ccc(C(=O)OC)cc1)[C@@H]1CCN(CC)C[C@H]21.Cl (racemic) [Compound 4587-064]
- CFU for MFC at 100 (Candida albicans): Static (Static = well looked clear, but <98% killed)
- CFU for MFC at 200 (Candida albicans): Cidal (Cidal = >98% killed)
- CFU for MFC at 300 (Candida albicans): Cidal (Cidal = >98% killed)
- Lowest [Active] (Candida albicans): 100
- Lowest MFC (Candida albicans; C. albicans, lowest concentration that kills >= 98% of the cells in the well): 100 µg/mL
- CFU for MFC at 100 (Aspergillus fumigatus): Cidal (Cidal = >98% killed)
- CFU for MFC at 200 (Aspergillus fumigatus): Cidal (Cidal = >98% killed)
- CFU for MFC at 300 (Aspergillus fumigatus): Cidal (Cidal = >98% killed)
- Lowest [Active] (Aspergillus fumigatus): 100
- Lowest MFC (Aspergillus fumigatus; A. fumigatus, lowest concentration that kills >= 98% of the cells in the well): 75 µg/mL

- melting point: 204 °C
Structure (SMILES): CCN1CC[C@@H]2[C@@H](c3ccc(C(=O)OC)cc3)c3cc(C)ccc3[C@@H]2C1.Cl (racemic)
